Test results from patent US20260242392A1, “ARYL TRICYCLIC STING AGONISTS AND USE THEREOF” (SHENZHEN GENUINE BIOTECHNOLOGY CO., LTD., priority 2023, published 2026).
pEC50: −log10 of the molar value. Where two headings read alike, the source gives them in different places. Blank lines part the entries; values can stand above or below the molecule they belong to.

What was measured:
[1] = mouse; for oral availability: ICR, in vivo, 5 mg/kg; for clearance in vivo compared to MAS-2: po
Protocol: (§1) The doses for IV and PO were 2 mg/kg and 5 mg/kg, respectively. Blood was collected at different time points after IV and PO administration and placed in heparinized tubes. Plasma was separated and frozen in a −20° C. refrigerator. Plasma was processed and then analyzed by LCMS/MS. Pharmacokinetic parameters of drug administration were calculated using a non-compartmental model in WinNonlin 8.2 software.

in vivo = conditions: ICR, mouse
Protocol: as §1

[2] = test system: mouse colorectal cancer CT26 cell line; assay: Subcutaneous tumor model of female Balb/c mice transplanted with mouse colorectal cancer CT26 cell line; format: in vivo; conditions: separate CT26 model cohort, 20 mg/kg
Protocol: Pharmacodynamic Evaluation of Test Compounds in a Subcutaneous Tumor Model of Female Balb/c Mice Transplanted with Mouse Colorectal Cancer CT26 Cell Line
CT-26 tumor cells were cultured in a suitable culture medium. Cells in the exponential growth phase were collected and subcutaneously inoculated into the right back of experimental mice. Tumor growth was observed regularly after inoculation. When the tumor reached an average volume of approximately 100 mm^3, mice were randomly grouped based on tumor size and body weight for administration. The day of grouping was defined as Day 0. Test compounds were administered orally once weekly for 4 times. The efficacy was evaluated by calculating the tumor growth inhibition (TGI) based on the tumor volume, and the safety was evaluated based on the changes in animal body weight and death. […] All test compounds were well-tolerated.

[3] = test system: human non-small cell lung cancer; conditions: in combination with standard chemotherapy; cited from earlier work
human STING protein = human STING protein (Homo sapiens, UniProt Q86WV6); conditions: cited from earlier work
Sequence of human STING protein (Q86WV6 whole entry): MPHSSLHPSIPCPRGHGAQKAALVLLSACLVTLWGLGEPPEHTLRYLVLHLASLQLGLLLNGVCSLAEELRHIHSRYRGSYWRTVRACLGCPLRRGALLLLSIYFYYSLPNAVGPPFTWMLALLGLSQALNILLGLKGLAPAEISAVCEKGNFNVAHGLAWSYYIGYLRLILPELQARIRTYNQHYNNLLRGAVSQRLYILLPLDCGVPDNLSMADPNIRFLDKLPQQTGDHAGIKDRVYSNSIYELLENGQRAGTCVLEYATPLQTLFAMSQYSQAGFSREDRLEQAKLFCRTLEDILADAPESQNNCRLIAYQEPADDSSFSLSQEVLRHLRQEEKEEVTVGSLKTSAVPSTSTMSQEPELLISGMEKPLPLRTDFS

Sting-HAQ = target: T1, Sting-HAQ (Homo sapiens, UniProt Q86WV6, G230A/H232R/R293Q/R71H); assay: HEK293-HAQ Luc reporter gene assay (Steady-Glo luciferase); format: cell-based; conditions: 24 h incubation; read-out: HEK293-HAQ Luc Report Assay (24 h) EC50
T1 construct: host or cells: HEK293-HAQ Luc reporter cell line
T1 sequence (Q86WV6 whole entry R71H/G230A/H232R/R293Q): as the sequence (Q86WV6 whole entry) above, with R71H, G230A, H232R, R293Q counted along it
Protocol: Test Principle: The HEK293-HAQ Luc reporter cell line utilizes the chemiluminescent reaction property of luciferase binding to its substrate beetle luciferin. The regulatory elements of the Sting-HAQ gene transcription are cloned upstream/downstream of the firefly luciferase gene to construct a luciferase recombinant plasmid. The recombinant plasmid is then transfected into HEK293 cells. After treatment with compounds, the cells are lysed, and the luciferase activity is measured using the Steady-Glo® detection system (Cat #E2550) manufactured by Promega Corporation. The effect of compounds on the Sting-HAQ regulatory elements is determined based on the level of luciferase activity. The Steady Glo® Luciferase Assay System enables high-throughput evaluation of the degree of activation of reporter cell lines by compounds through the activity of luciferase in mammalian cells, and provides long-term stable luminescence when used with reporter cell lines. The detection system can sustain a signal half-life of more than 5 hours in the test cell culture medium, enabling uniform measurement without sample pretreatment.
Test Method: Complete medium (DMEM+10% FBS+1% P/S) was prepared. The Hek293-HAQ Luc reporter cell line was resuscitated and passaged twice. Cells in logarithmic growth phase were collected by centrifugation, counted, and resuspended to an appropriate concentration. The cell suspension was seeded into a 96-well plate at a density of 20000 cells/well, with 100 µL of the cell suspension added per well. Test compounds were prepared into stock solutions with DMSO, and serially diluted 3-fold with DMSO starting from the highest concentration of 100 mM to obtain 9 concentration gradients. The test compounds were diluted 47.62-fold with culture medium, and 5 μL of each dilution was added to the 96-well plate containing 100 μL of cells. To Min control wells were added 5 μL of DMSO-cell culture medium mixture (with a final DMSO concentration of 0.1%), while Max control wells received 5 μL of a positive reference compound. The plate was incubated at 37° C. in an incubator with 5% carbon dioxide and relative humidity above 90% for 24 h. Subsequently, 75 μL/well of […] was added to terminate the reaction. After shaking at 305 rpm for 10 min, the plates were detected on Envision. The […] value RLU of each well was read, and the activation rate was calculated according to the formula: Activation %=(Sample−Ave_L)/(Ave_H−Ave_L)×100, where Ave_L: RLU Min (0.1% DMSO), Ave_H: RLU Max (positive reference compound). The activation rate, Activation % (Y), corresponding to each concentration (X), was entered in EXCEL. The half-maximal effective concentration EC50 value of each compound was calculated according to the built-in four-parameter fitting formula Y=Bottom+(Top−Bottom)/(1+10^((LogEC50−X)*HillSlope)) using the XLfit plug-in.

[4] = Pharmacokinetic (PK) study in ICR mice, IV and PO; conditions: for AUC(0-t) / Vd / clearance / half-life / Cmax / bioavailability: ICR, mouse, plasma; for oral availability: oral administration at 5 mg/kg
Protocol: as §1

[5] = mouse PK, injection 2 mg/kg and oral 5 mg/kg

SMILES: COc1cc2sc(C(=O)CC(C)C(=O)O)cc2c2ncoc12 (centres unmarked) [Example 12]
oral availability [1]: 100%
clearance in vivo compared to MAS-2 [1]: lower clearance
AUC(0-t) (in vivo; iv, 2 mg/kg): 1570 ng·h/mL
Vd (in vivo; iv, 2 mg/kg): 0.49 L/kg
clearance (in vivo; iv, 2 mg/kg): 21.2 mL/min/kg
half-life (in vivo; iv, 2 mg/kg): 1.5 h
AUC(0-t) (in vivo; po, 5 mg/kg): 4060 ng·h/mL
Cmax (in vivo; po, 5 mg/kg): 6020 ng/mL
bioavailability (in vivo; po, 5 mg/kg): 104%
half-life (in vivo; po, 5 mg/kg): 2 h

SMILES: CC[C@@H](CC(=O)c1cc2c(cc(OC)c3oc(C)nc32)s1)C(=O)O [Compound 53]
tumor growth inhibition (TGI) [2]: 101%

SMILES: COc1cc2sc(C(=O)C[C@H](C)C(=O)O)cc2c2ncoc12 [Example 46, (S)-4-(4-methoxythieno[2′,3′:5,6]benzo[1,2-d]oxazol-7-yl)-2-methyl-4-oxobutanoic acid]
oral availability [1]: 64.6%
clearance in vivo compared to MAS-2 [1]: lower clearance
AUC(0-t) (in vivo; iv, 2 mg/kg): 3540 ng·h/mL
Vd (in vivo; iv, 2 mg/kg): 0.32 L/kg
clearance (in vivo; iv, 2 mg/kg): 9.38 mL/min/kg
half-life (in vivo; iv, 2 mg/kg): 1.72 h
AUC(0-t) (in vivo; po, 5 mg/kg): 5710 ng·h/mL
Cmax (in vivo; po, 5 mg/kg): 6480 ng/mL
bioavailability (in vivo; po, 5 mg/kg): 64.6%
half-life (in vivo; po, 5 mg/kg): 1.61 h

SMILES: Cc1ccc2c(=O)c3cccc(CC(=O)O)c3oc2c1C [DMXAA]
clinical efficacy [3]: failed to show significant efficacy
activation of human STING protein (human STING protein): fails to activate

pEC50 (Sting-HAQ): 5.59
AUC(0-t) ([4]; iv, 2 mg/kg): 1010 ng·h/mL
Vd ([4]; iv, 2 mg/kg): 0.343 L/kg
clearance ([4]; iv, 2 mg/kg): 33 mL/min/kg
half-life ([4]; iv, 2 mg/kg): 0.431 h
AUC(0-t) ([4]; po, 5 mg/kg): 1530 ng·h/mL
Cmax ([4]; po, 5 mg/kg): 2810 ng/mL
bioavailability ([4]; po, 5 mg/kg): 61.2%
half-life ([4]; po, 5 mg/kg): 1.63 h
oral availability ([4]; mouse PK): 61.23%
SMILES: COc1cc2cc(C(=O)CCC(=O)O)sc2cc1OC [MAS-2, reference compound]

AUC(0-t) ([4]; iv, 2 mg/kg): 3240 ng·h/mL
Vd ([4]; iv, 2 mg/kg): 1.28 L/kg
clearance ([4]; iv, 2 mg/kg): 10.2 mL/min/kg
half-life ([4]; iv, 2 mg/kg): 4.36 h
AUC(0-t) ([4]; po, 5 mg/kg): 8550 ng·h/mL
Cmax ([4]; po, 5 mg/kg): 4550 ng/mL
bioavailability ([4]; po, 5 mg/kg): 105%
half-life ([4]; po, 5 mg/kg): 3.1 h
clearance in vivo compared to MAS-2 [4, 5]: lower clearance
exposure in vivo compared to MAS-2 [4, 5]: higher exposure
oral availability ([4]; mouse PK): 100%
SMILES: CC[C@@H](CC(=O)c1cc2c(cc(OC)c3ocnc32)s1)C(=O)O [Compound 51]
tumor growth inhibition (TGI) [2]: 99%

AUC(0-t) ([4]; iv, 2 mg/kg): 4300 ng·h/mL
Vd ([4]; iv, 2 mg/kg): 0.49 L/kg
clearance ([4]; iv, 2 mg/kg): 7.56 mL/min/kg
half-life ([4]; iv, 2 mg/kg): 2.68 h
AUC(0-t) ([4]; po, 5 mg/kg): 10200 ng·h/mL
Cmax ([4]; po, 5 mg/kg): 10100 ng/mL
bioavailability ([4]; po, 5 mg/kg): 92.9%
half-life ([4]; po, 5 mg/kg): 3.05 h
SMILES: COc1cc2sc(C(=O)C[C@H](C)C(=O)O)cc2c2cc(F)oc12 [Example 62, (S)-4-(2-fluoro-4-methoxythieno[3,2-e]benzofuran-7-yl)-2-methyl-4-oxobutanoic acid]
